Laboratory results published in US7511041B2, “Fused azole-pyrimidine derivatives” (Bayer Pharmaceuticals Corporation, priority 2002, dated 2009).
Read-outs that look alike come from different tables or passages of the source.

Legend:
[1] = target: T1, Recombinant human PI3Kγ (full length human PI3K p110γ) (Homo sapiens, UniProt P48736); test: Kinase assay of PI3Kγ (solid-phase lipid kinase assay); format: biochemical
T1 construct: full length human PI3K p110γ fused with a His6-tag at the C-terminus; His6 (C); purchased ALEXIS BIOCHEMICALS #201-055-C010; host or cells: S. frugiperda 9 insect cells
T1 sequence (P48736 whole entry, the tested form may be a part): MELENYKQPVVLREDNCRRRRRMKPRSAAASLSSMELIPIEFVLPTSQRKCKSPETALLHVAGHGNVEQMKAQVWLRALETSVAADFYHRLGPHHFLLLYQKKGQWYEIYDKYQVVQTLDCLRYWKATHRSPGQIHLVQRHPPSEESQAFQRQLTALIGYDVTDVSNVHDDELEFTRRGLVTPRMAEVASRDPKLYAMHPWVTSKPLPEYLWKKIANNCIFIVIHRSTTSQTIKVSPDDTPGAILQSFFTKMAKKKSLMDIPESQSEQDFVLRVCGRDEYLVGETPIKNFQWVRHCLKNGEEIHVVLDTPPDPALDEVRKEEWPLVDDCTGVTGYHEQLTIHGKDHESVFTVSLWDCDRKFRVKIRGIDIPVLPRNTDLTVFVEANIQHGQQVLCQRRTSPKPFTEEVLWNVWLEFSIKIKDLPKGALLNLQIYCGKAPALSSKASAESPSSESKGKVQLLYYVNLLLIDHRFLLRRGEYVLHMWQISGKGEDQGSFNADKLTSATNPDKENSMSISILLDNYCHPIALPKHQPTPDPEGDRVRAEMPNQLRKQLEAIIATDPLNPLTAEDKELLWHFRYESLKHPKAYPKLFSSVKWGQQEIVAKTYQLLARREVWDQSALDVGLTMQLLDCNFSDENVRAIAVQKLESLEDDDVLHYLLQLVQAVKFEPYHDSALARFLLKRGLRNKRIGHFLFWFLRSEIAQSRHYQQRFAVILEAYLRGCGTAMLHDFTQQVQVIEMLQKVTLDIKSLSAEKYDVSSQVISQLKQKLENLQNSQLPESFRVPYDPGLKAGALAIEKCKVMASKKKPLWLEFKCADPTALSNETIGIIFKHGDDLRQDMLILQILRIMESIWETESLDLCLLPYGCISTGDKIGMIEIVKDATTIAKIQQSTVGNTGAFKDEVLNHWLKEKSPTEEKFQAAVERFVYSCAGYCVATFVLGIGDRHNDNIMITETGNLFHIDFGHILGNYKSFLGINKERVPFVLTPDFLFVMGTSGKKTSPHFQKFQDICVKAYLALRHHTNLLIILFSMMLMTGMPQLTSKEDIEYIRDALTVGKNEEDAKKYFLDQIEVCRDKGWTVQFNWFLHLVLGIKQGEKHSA

[2] = Table 1, isozyme not given, read-out: in vitro
[3] = in vitro PI3K-γ inhibitory activity, class symbols, read-out: in vitro PI3K-gamma
[4] = in vitro PI3K-γ inhibitory activity, class symbols A-D, read-out: in vitro PI3K-gamma

SMILES	melting point	IC50 [1, 2]	IC50 [1, 3]	IC50 [1, 4]	IC50 ([1]; activity class of IC50, read-out: In vitro PI3K-γ inhibitory activity)
COc1cc2c(cc1OC)C1=NCCN1C(/C=C(\O)c1cccs1)=N2 [Example 1-58]	250 °C	100 to 500 nM	–	–	–
O/C(=C\C1=Nc2ccccc2C2=NCCN12)c1ccccc1O [Example 1-170]	252 to 256 °C	> 2000 nM	–	–	–
Cc1nc(C)c(/C(O)=C/C2=Nc3ccccc3C3=NCCN23)s1 [Example 1-156]	222 °C	< 100 nM	–	–	–
O/C(=C\C1=Nc2ccccc2C2=NCCN12)c1csc2ccccc12 [Example 1-180]	220 to 225 °C	> 2000 nM	–	–	–
COc1c(OCC(=O)NCc2ccc(F)cc2)ccc2c1N=C(/C=C(\O)c1cccnc1)N1CCN=C21.Cl [Example 1-31]	230 to 231 °C	100 to 500 nM	–	–	–
CC(=O)Nc1ccc(/C(O)=C/C2=Nc3ccccc3C3=NCCN23)cn1.Cl [Example 1-138]	327 °C	< 100 nM	–	–	–
O=C(NC1=Nc2ccccc2C2=NCCN12)c1cccc(Cl)c1.O=C(O)C(F)(F)F [Example 2-228]	233 to 235 °C	–	–	500 to 2000 nM	–
Cc1ccc(/C(O)=C/C2=Nc3ccccc3C3=NCCN23)cn1 [Example 1-136]	217 to 219 °C	100 to 500 nM	–	–	–
COc1c(OCCCC(=O)N2CCOCC2)ccc2c1N=C(/C=C(\O)c1cccnc1)N1CCN=C21.Cl [Example 1-198]	215 to 216 °C	< 100 nM	–	–	–
CCC(C(=O)c1ccccc1)C1=Nc2ccccc2C2=NCCN21 (stereo not shown) [Example 1-193]	156 to 160 °C	> 2000 nM	–	–	–
O=C(NCCc1ccc2c(n1)N=C(/C=C(\O)c1cccnc1)N1CCN=C21)N1CCCCC1 [Example 1-205]	246 °C	100 to 500 nM	–	–	–

Now from value to compound:

melting point	IC50 [1, 2]	IC50 [1, 3]	IC50 [1, 4]	IC50 ([1]; activity class of IC50, read-out: In vitro PI3K-γ inhibitory activity)	SMILES
256 °C	–	100 to 500 nM	–	–	COc1cc2c(cc1OC)C1=NCCN1C(NC(=O)c1ccc(N)nc1)=N2.Cl [Example 2-56]
248 °C (dec.)	–	–	> 2000 nM	–	COc1cc(C(=O)NC2=Nc3ccccc3C3=NCCN23)cc(OC)c1C [Example 2-241]
223 to 224 °C (dec.)	–	–	–	500 to 2000 nM	O=C(Nc1nc2ccccc2c2nccn12)c1cccnc1 [Example 4-1, N-Imidazo[1,2-c]quinazolin-5-ylnicotinamide]
240 to 241 °C	–	–	> 2000 nM	–	COc1cc2c(cc1OC)C1=NCCN1C(NC(C)=O)=N2 [Example 2-343]
265 to 269 °C (dec.)	–	–	100 to 500 nM	–	Cl.O=C1NCC(COc2ccc3c(c2)N=C(NC(=O)c2cccnc2)N2CCN=C32)O1 (stereo not shown) [Example 2-204]
204 °C (dec.)	–	–	> 2000 nM	–	C[C@H]1CN2C(NC(=O)c3cccnc3)=Nc3ccccc3C2=N1.Cl [Example 2-363]
218 to 220 °C	–	–	> 2000 nM	–	O=C(NC1=Nc2ccccc2C2=NCCN12)c1ccc(-n2cccc2)cc1 [Example 2-266]
195 to 196 °C	–	< 100 nM	–	–	Cc1ccc(C(=O)NC2=Nc3ccccc3C3=NCCN23)cn1 [Example 2-147]
288 °C	–	< 100 nM	–	–	Cl.O=C(NC1=Nc2c(F)cccc2C2=NCCN12)c1cccnc1 [Example 2-100]
202 to 204 °C	–	–	500 to 2000 nM	–	O=C(NC1=Nc2ccccc2C2=NCCN12)c1ccccc1F [Example 2-224]
185 to 187 °C	–	–	> 2000 nM	–	COc1ccccc1C(=O)NC1=Nc2ccccc2C2=NCCN12 [Example 2-232]
202 °C	–	100 to 500 nM	–	–	COc1cc2c(c(OC)c1C)N=C(NC(=O)c1ccc3[nH]cnc3c1)N1CCN=C21 [Example 2-81]
220 °C (dec.)	–	< 100 nM	–	–	COc1cccc2c1N=C(NC(=O)c1cnccc1C)N1CCN=C21.Cl [Example 2-120]
198 to 205 °C (dec.)	–	100 to 500 nM	–	–	COc1ccc2c(c1)N=C(NC(=O)c1ccc(NC(C)=O)nc1)N1CCN=C21.Cl [Example 2-22]
249 °C (dec.)	–	–	> 2000 nM	–	CN(C)c1ccc(C(=O)NC2=Nc3ccccc3C3=NCCN23)cn1 [Example 2-282]
